According to the OPERA property sets (Mansouri et al. 2018):

In order of rising boiling point:
1. C#CC#C  10.3 °C
2. COC=O  31.7 °C
3. Fc1c(F)c(F)c(F)c(F)c1F  80.2 °C
4. CCC(Br)CC  119 °C
5. CC/C=C\CCCC  123 °C
6. CC(C)NNC(C)C  125 °C
7. CC(C)=CC=C(C)C  134 °C
8. CC=C1CCCCC1  136 °C
9. CCCC(CC)CCC  141 °C
10. CC1CNCC(C)C1 (stereo not given)  144 °C
11. CCCB(CCC)CCC  159 °C
12. IC1CCCC1  166 °C
13. OCCN1CC1  168 °C
14. C=CC(=O)OC1CCCCC1C (stereo not given)  210 °C
15. CC1C(=O)CC2CC1C2(C)C (stereo not given)  212 °C
16. CCOC(=O)C(C#N)(CC)CC  214 °C
17. O=[N+]([O-])c1ccccc1C(F)(F)F  217 °C
18. Clc1cccc(Cl)c1Cl  218 °C
19. C=CCC(C(=O)OCC)C(=O)OCC  222 °C
20. NCCCCCCCN  224 °C
21. CC(=O)CCCCO  227 °C
22. Sc1ccc(Br)cc1  230 °C
23. Cc1cc(Br)ccc1Br  236 °C
24. CCCCCCCCCC(=O)O  269 °C
25. C[C@H](N[C@@H](C)c1ccccc1)c1ccccc1  296 °C
26. CC(=O)c1ccc2ccccc2c1  302 °C
27. CC(=O)Nc1ccc(C)cc1  307 °C
28. NC1CCC(CC2CCC(N)CC2)CC1 (stereo not given)  320 °C
29. Brc1ccc2c3c(cccc13)CC2  335 °C

In order of rising log10 vapour pressure (mmHg):
1. CCc1ccc(C(=O)NN(C(=O)c2cc(C)cc(C)c2)C(C)(C)C)cc1  -7.65
2. CC(C)CCCCCOC(=O)c1ccccc1C(=O)OCCCCCC(C)C  -5.26
3. CNC(=O)Oc1cc(C)c(C)c(C)c1  -4.29
4. COP(=S)(OC)Oc1cc(Cl)c(Br)cc1Cl  -3.89
5. CCCCCCCCCC(=O)O  -3.44
6. CC(=O)c1ccc2ccccc2c1  -3.21
7. Clc1ccc(Cl)c(Oc2ccccc2)c1  -3
8. C=CCSSSC  -1.3
9. Clc1cccc(Cl)c1Cl  -0.678
10. Fc1c(F)c(F)c(F)c(F)c1F  1.93
11. COC=O  2.77
12. C#CC#C  3.12

In order of rising melting point:
1. CCC(Br)CC  -126 °C
2. CC/C=C\CCCC  -118 °C
3. COC=O  -99 °C
4. CCCB(CCC)CCC  -56 °C
5. C#CC#C  -36.4 °C
6. ClCC=Cc1ccccc1  -19 °C
7. Cc1cc(Br)ccc1Br  5.6 °C
8. CC(C)=CC=C(C)C  14 °C
9. NC1CCC(CC2CCC(N)CC2)CC1 (stereo not given)  15 °C
10. OCCCCCCCCCCl  28 °C
11. NCCCCCCCN  28.9 °C
12. CCCCCCCCCC(=O)O  31.9 °C
13. O=[N+]([O-])c1ccccc1C(F)(F)F  32.5 °C
14. Cc1ccc2sc(C)nc2c1  38 °C
15. CSc1nc2ccccc2s1  44 °C
16. CCCCCCCCCCCC(=O)c1ccccc1  47 °C
17. CCOP(=S)(OCC)SCn1c(=O)oc2cc(Cl)ccc21  47.8 °C
18. COC(=O)c1cc(Cl)ccc1O  50 °C
19. Brc1ccc2c3c(cccc13)CC2  52 °C
20. COP(=S)(OC)Oc1cc(Cl)c(Br)cc1Cl  53.5 °C
21. Clc1cccc(Cl)c1Cl  53.5 °C
22. CC(=O)c1ccc2ccccc2c1  56 °C
23. CC(=O)C=CC=Cc1ccccc1  68 °C
24. Sc1ccc(Br)cc1  73 °C
25. CCCCC(=O)c1ccc(N)cc1  74.5 °C
26. OCCN1CCN(CCCN2c3ccccc3Sc3ccc(Cl)cc32)CC1  97 °C
27. O=C(OC(=O)C(c1ccccc1)c1ccccc1)C(c1ccccc1)c1ccccc1  98 °C
28. CC(=O)N(C)C(=O)COC(=O)c1ccccc1  102 °C
29. Cc1ccc(S(=O)(=O)O)cc1  104 °C
30. CC(C)(c1cc(Br)c(OCCO)c(Br)c1)c1cc(Br)c(OCCO)c(Br)c1  107 °C
31. O=C(Oc1ccc2ccccc2c1)c1ccccc1  107 °C
32. CNC(=O)Oc1cc(C)c(C)c(C)c1  109 °C
33. CNC(=O)Oc1ccc(SC)c(C)c1  118 °C
34. CCCCC1(CC)C(=O)NC(=O)NC1=O  128 °C
35. O=[N+]([O-])C(Br)(CO)CO  132 °C
36. Oc1ccc2ccccc2c1/N=N/c1ccccc1  134 °C
37. CC(=O)Nc1ccc(C)cc1  152 °C
38. CC(=O)OCC1=C(C(=O)O)N2C(=O)[C@@H](NC(=O)Cc3cccs3)[C@H]2SC1  160 °C
39. O=C(NO)c1ccccc1O  168 °C
40. O=S(=O)(O)OCCOc1ccc(Cl)cc1Cl  170 °C
41. CC1(C)NC(=O)NC1=O  178 °C
42. Nc1ccc(S(=O)(=O)Nc2ccnn2-c2ccccc2)cc1  181 °C
43. CO[C@H]1[C@@H](O)[C@@H](C)O[C@H](O[C@H]2[C@H](Oc3cccc4c(O)c5c(=O)oc6ccc(C)c7c(=O)oc(c34)c5c67)O[C@H](C)[C@H](O)[C@@H]2O)[C@@H]1O  185 °C
44. O=C(O)CNCP(=O)(O)O  190 °C
45. CCc1ccc(C(=O)NN(C(=O)c2cc(C)cc(C)c2)C(C)(C)C)cc1  191 °C
46. CCCc1cc(=O)[nH]c(=S)[nH]1  219 °C
47. Cc1csc(NS(=O)(=O)c2ccc(N)cc2)n1  237 °C
48. NC(=O)NC1NC(=O)NC1=O (stereo not given)  238 °C
49. Nc1c2ccccc2nc2ccccc12  241 °C
50. CN1C(=O)CN=C(c2ccccc2F)c2cc(Cl)ccc21  296 °C

With `CCCCCCCCCC(=O)O` the ready biodegradability was “readily biodegradable”.
With `CC(C)(c1cc(Br)c(OCCO)c(Br)c1)c1cc(Br)c(OCCO)c(Br)c1` the ready biodegradability was “not readily biodegradable”.
In the case of `c1cc(-c2ncco2)cc(-c2ncco2)c1`, the ready biodegradability is reported as “not readily biodegradable”.
With `CCCc1cc(=O)[nH]c(=S)[nH]1` the ready biodegradability was “not readily biodegradable”.
For `Cc1ccc(S(=O)(=O)O)cc1`, the ready biodegradability was “readily biodegradable”.
For `O=[N+]([O-])C(Br)(CO)CO`, the ready biodegradability was “not readily biodegradable”.
For `Clc1cccc(Cl)c1Cl`, the ready biodegradability was “not readily biodegradable”.

In order of falling log10 Koc (L/kg):
1. Oc1ccc2ccccc2c1/N=N/c1ccccc1  3.58
2. Clc1cccc(Cl)c1Cl  3.33
3. O=C(O)CNCP(=O)(O)O  3.32
4. CC(C)CCCCCOC(=O)c1ccccc1C(=O)OCCCCCC(C)C  3.21
5. CC(=O)c1ccc2ccccc2c1  2.93
6. CCOP(=S)(OCC)SCn1c(=O)oc2cc(Cl)ccc21  2.63
7. CNC(=O)Oc1cc(C)c(C)c(C)c1  2.6
8. CCCCc1cccc2[nH]nnc12  2.16

In order of rising log10 Henry constant (atm·m³/mol):
1. COC=O  -3.65
2. Clc1cccc(Cl)c1Cl  -2.9

In order of rising log10 Koa:
1. COC=O  1.75
2. Clc1cccc(Cl)c1Cl  5.19
